Patent US5053333A, “Protease” (M & D Research Co., Ltd., priority 1988, dated 1991)
Peptide text beside a SMILES is read from it. * marks the point of attachment. AMC = Cc1cc(=O)oc2cc(N*)ccc12; Boc = CC(C)(C)OC(=O)*; OBn = c1ccc(CO*)cc1

How the values were obtained:
[1] = tested on: Benz-II (protease specific for basic amino acid residue); assay: Behavior of Benz-II against various inhibitors (residual activity); format: biochemical, Kluyveromyces lactis IFO 1903; conditions: 25° C. 30 minutes, control lot = 100
[2] = tested on: Benz-I (protease specific for basic amino acid residue); assay: Behavior of Benz-I against various inhibitors (residual activity); format: biochemical, Kluyveromyces lactis IFO 1903; conditions: 25° C. 30 minutes, control lot = 100
protease B = assay: Activation and inhibition of protease B (stated properties); format: biochemical, Kluyveromyces lactis IFO 1903; conditions: statement in words
[3] = tested on: protease specific for basic amino acid residue from Sporobolomyces odrus IFO 1597; assay: Behavior of Sporobolomyces protease against various inhibitors (residual activity); format: biochemical; conditions: 25° C. 30 minutes
protease A = assay: Activation and inhibition of protease A (stated properties); format: biochemical, Sporobolomyces odrus IFO 1597; conditions: statement in words
Description: The enzymes was incubated in the absence of any substrate in standard reaction mixtures containing various inhibitors at 25° C. for 30 minutes. After adding the substrate, the residual activity of each enzyme was determined.
The enzyme was reacted in the standard reaction mixture while varying the type and concentration of surfactants.
The activity of the enzyme was determined in the presence of 0.1% of EDTA while varying the concentration of CaCl2. […] The concentration of free CaCl2 was calculated from the apparent dissociation constant (K1) of EDTA for CaCl2 (log K1 =7.3).

[4] = tested on: Benz-I (protease specific for basic amino acid residue); assay: Substrate specificity of Benz-I with fluorescent substrates; format: biochemical, Kluyveromyces lactis IFO 1903; conditions: activity for Boc-Gln-Arg-Arg-MCA being 100; standard conditions
Description: (§1) 1 ml of a reaction mixture containing 50 μmol of Tris-hydrochloride buffer (pH 7.0), 10 mg of Lubrol PX, 0.5 μmol of calcium chloride, 0.1 μmol of Boc-Gln-Arg-Arg-MCA, wherein Boc represents a t-butyloxycarbonyl group while MCA represents 4-methylcoumarin-7-amide and the enzyme is allowed to react at 30° C. The fluorescence (excition wavelength: 380 nm, emmision wavelength: 460 nm) originating from the 7-amino-4-methylcoumarin (AMC) thus formed is monitored with the lapse of time. The amount of the enzyme activity capable of catalyzing the release of 1 n mol of AMC per one minute is defined as 1 U. The specific activity is represented by U per mg of protein. The amount of the protein is determined by measurement the absorbance at […] as E^1% of protein being assumed to be 10.
(§2) The activities of Benz-I and Benz-II were determined under standard conditions with the use of various fluorescent substrates. The activity for each substrate was expressed by relative activity with the activity for Boc-Gln-Arg-Arg-MCA being 100.

[5] = tested on: Benz-II (protease specific for basic amino acid residue); assay: Substrate specificity of Benz-II with fluorescent substrates; format: biochemical, Kluyveromyces lactis IFO 1903; conditions: activity for Boc-Gln-Arg-Arg-MCA being 100; standard conditions
Description: as §1, §2

[6] = tested on: protease specific for basic amino acid residue from Sporobolomyces odrus IFO 1597; assay: Substrate specificity of Sporobolomyces protease with fluorescent substrates; format: biochemical; conditions: activity for Boc-Gln-Arg-Arg-MCA being 100; standard conditions
Description: A reaction mixture containing 50 μmol of tris hydrochloride buffer solution (pH 7.0), 10 mg of Lubrol PX, 0.5 μmol of calcium chloride, 0.1 μmol of Boc-Gln-Arg-Arg-MCA, wherein Boc represents a t-butyloxycalbonyl group while MCA represents 4-methylcoumarin-7-amide and the enzyme is allowed to react at 30° C. The fluorescence (excition wavelength: 380 nm, emission wavelength: 460 nm) originating from the 7-amino-4-methylcoumarin (AMC) thus formed is monitored. The amount of the enzyme capable of catalyzing the release of 1 nmol of AMC per one minute is defined as 1 U.
The activities of the enzyme for various fluorescent substrates were determined under standard reaction conditions.

**Q.** `O=C(O)c1cc[c]([Hg][Cl])cc1` [p-chloromercuribenzoic acid] was tested. Which “Residual activity of Benz-II” value ([1]; inhibitor 50 μM) did it give?
**A.** The value was 3.

**Q.** What about the “Residual activity of Benz-I” value ([2]; inhibitor 50 μM) of the same compound?
**A.** The value was 1.

**Q.** And the “inhibition of protease B” value (protease B)?
**A.** The value was “inhibited”.

**Q.** And the “relative activity (residual)” value ([3]; Ca2+ +, inhibitor 50 μM)?
**A.** Its value is 36%.

**Q.** What about the “inhibition of protease A” value (protease A) of the same compound?
**A.** Its value is “inhibited”.

**Q.** For Triton X-100, which “activation of protease B” value (protease B) is on record?
**A.** The value was “activated”.

**Q.** What about the “activation of protease A” value (protease A) of the same compound?
**A.** Its value is “activated”.

**Q.** Which “Residual activity of Benz-II” value ([1]; inhibitor 1 mM) does the source give for `O=S(=O)([O-])[O-].[Cu+2]` [copper sulfate] here?
**A.** The value was 0.6.

**Q.** What about the “Residual activity of Benz-I” value ([2]; inhibitor 1 mM) of the same compound?
**A.** Its value is 0.2.

**Q.** And the “inhibition of protease B” value (protease B)?
**A.** The value was “inhibited”.

**Q.** And the “relative activity (residual)” value ([3]; Ca2+ +, inhibitor 1 mM)?
**A.** Its value is 2%.

**Q.** And the “inhibition of protease A” value (protease A)?
**A.** The value was “inhibited”.

**Q.** Which results are given for `[Cl][Hg][Cl]` [mercury chloride]?
**A.** Residual activity of Benz-II ([1]; inhibitor 1 mM): 0; Residual activity of Benz-I ([2]; inhibitor 1 mM): 0; inhibition of protease B (protease B): inhibited; relative activity (residual) ([3]; Ca2+ +, inhibitor 1 mM): 0%; inhibition of protease A (protease A): inhibited

**Q.** For `Cc1cc(=O)oc2cc(NC(=O)[C@H](CCCNC(=N)N)NC(=O)[C@@H]3CCCN3C(=O)[C@@H](NC(=O)OC(C)(C)C)C(C)C)ccc12` [Boc--Val--Pro--Arg--MCA] (Boc-Val-Pro-Arg-{AMC}), which “Relative activity of Benz-I for substrate” value [4] is on record?
**A.** Its value is 107.

**Q.** What about the “Relative activity of Benz-II for substrate” value (shortened to “Relative activity of Benz-II”) [5] of the same compound?
**A.** Its value is 88.0.

**Q.** And the “Activity (relative) for substrate” value [6]?
**A.** Its value is 26%.

**Q.** What does the source list for `Cc1cc(=O)oc2cc(NC(=O)[C@H](CCCCN)NC(=O)[C@H](CCCCN)NC(=O)[C@H](CCC(=O)O)NC(=O)OC(C)(C)C)ccc12` [Boc--Glu--Lys--Lys--MCA] (Boc-Glu-Lys-Lys-{AMC})?
**A.** Relative activity of Benz-I for substrate [4]: 1.3; Relative activity of Benz-II for substrate [5]: 0.9; Activity (relative) for substrate [6]: 0%

**Q.** `Cc1cc(=O)oc2cc(NC(=O)[C@H](CCCNC(=N)N)NC(=O)[C@@H](NC(=O)[C@H](CC(C)C)NC(=O)OC(C)(C)C)[C@@H](C)O)ccc12` [Boc--Leu--Thr--Arg--MCA] (Boc-Leu-Thr-Arg-{AMC}) was tested. Which “Relative activity of Benz-I for substrate” value [4] did it give?
**A.** The value was 20.0.

**Q.** And the “Relative activity of Benz-II” value [5]?
**A.** The value was 13.9.

**Q.** What about the “Activity (relative) for substrate” value [6] of the same compound?
**A.** The value was 3%.

**Q.** How did the “Residual activity of Benz-II” value ([1]; inhibitor 1 mM) turn out when `N=C(N)c1ccc(CS(=O)(=O)F)cc1` [p-amidino-PMSF, p-amidinophenylmethanesulfonyl fluoride] was run?
**A.** The value was 0.

**Q.** What about the “Residual activity of Benz-I” value ([2]; inhibitor 1 mM) of the same compound?
**A.** Its value is 0.

**Q.** And the “inhibition of protease B” value (protease B)?
**A.** Its value is “inhibited”.

**Q.** What about the “relative activity (residual)” value ([3]; Ca2+ +, inhibitor 1 mM) of the same compound?
**A.** Its value is 10%.

**Q.** What about the “inhibition of protease A” value (protease A) of the same compound?
**A.** The value was “inhibited”.

**Q.** Which results are given for `[Cl-].[Cl-].[Zn+2]` [zinc chloride]?
**A.** Residual activity of Benz-II ([1]; inhibitor 1 mM): 7; Residual activity of Benz-I ([2]; inhibitor 1 mM): 7; inhibition of protease B (protease B): inhibited; relative activity (residual) ([3]; Ca2+ +, inhibitor 1 mM): 1%; inhibition of protease A (protease A): inhibited

**Q.** `Cc1cc(=O)oc2cc(NC(=O)[C@H](CCCNC(=N)N)NC(=O)[C@H](CCCCN)NC(=O)[C@H](CC(C)C)NC(=O)OC(C)(C)C)ccc12` [Boc--Leu--Lys--Arg--MCA] (Boc-Leu-Lys-Arg-{AMC}) was tested. Which “Relative activity of Benz-I for substrate” value [4] did it give?
**A.** The value was 123.

**Q.** What about the “Relative activity of Benz-II” value [5] of the same compound?
**A.** Its value is 127.

**Q.** And the “Activity (relative) for substrate” value [6]?
**A.** The value was 75%.

**Q.** For `O=C(O)CN(CCOCCOCCN(CC(=O)O)CC(=O)O)CC(=O)O` [ethylene glycol bis(2-aminoethyl ether)tetraacetic acid], which “Residual activity of Benz-II” value ([1]; inhibitor 1 mM) is on record?
**A.** The value was 43.

**Q.** What about the “Residual activity of Benz-II” value ([1]; inhibitor 5 mM) of the same compound?
**A.** Its value is 12.

**Q.** And the “Residual activity of Benz-I” value ([2]; inhibitor 1 mM)?
**A.** The value was 53.

**Q.** And the “Residual activity of Benz-I” value ([2]; inhibitor 5 mM)?
**A.** Its value is 12.

**Q.** And the “inhibition of protease B” value (protease B)?
**A.** The value was “inhibited”.

**Q.** And the “relative activity (residual)” value ([3]; Ca2+ --, inhibitor 1 mM)?
**A.** Its value is 10%.

**Q.** And the “inhibition of protease A” value (protease A)?
**A.** The value was “inhibited”.

**Q.** `Cc1cc(=O)oc2cc(NC(=O)[C@H](CCCNC(=N)N)NC(=O)[C@@H]3CCCN3C(=O)CNC(=O)[C@H](C)NC(=O)OC(C)(C)C)ccc12` [Boc--Ala--Gly--Pro--Arg--MCA] (Boc-AGPR-{AMC}) was tested. Which “Relative activity of Benz-I for substrate” value [4] did it give?
**A.** The value was 1.9.

**Q.** What about the “Relative activity of Benz-II” value [5] of the same compound?
**A.** The value was 1.6.

**Q.** And the “Activity (relative) for substrate” value [6]?
**A.** The value was 1%.

**Q.** With `Cc1cc(=O)oc2cc(NC(=O)[C@H](CCCNC(=N)N)NC(=O)[C@@H]3CCCN3C(=O)[C@H](CC(=O)OCc3ccccc3)NC(=O)OC(C)(C)C)ccc12` [Boc--Asp(OBzl)--Pro--Arg--MCA] (Boc-Asp(OBn)-Pro-Arg-{AMC}) as the compound, how does the “Relative activity of Benz-I for substrate” value [4] read?
**A.** Its value is 12.3.

**Q.** What about the “Relative activity of Benz-II” value [5] of the same compound?
**A.** The value was 7.8.

**Q.** What about the “Activity (relative) for substrate” value [6] of the same compound?
**A.** Its value is 5%.
